For orientation: IC50 means the midpoint of a concentration-inhibition curve.

In one test the target is TrkA (Homo sapiens (Human), UniProt P04629). Put plainly: TrkA activity, off-chip mobility shift assay (LabChip 3000). The format is biochemical. The settings on record: 55 μM ATP (ATP Km); n/d = none detected. The text has this:
(§1) Reagents and consumables were purchased from Sigma Aldrich, Carna Biosciences, or Caliper Life Sciences. All assay reaction conditions for IC50 determinations were within the linear range with respect to time and enzyme concentration. […] The LabChip 3000 separates and measures the fluorescent signal of fluorescein labeled peptide substrate and fluorescein labeled peptide product present in each well. Results are expressed as percent conversion by measuring peak height for both the substrate and product and dividing the product peak height by the sum of peak heights for both substrate and product.

The next test addresses TrkB (Homo sapiens (Human), UniProt Q16620). In words: TrkB activity, off-chip mobility shift assay (LabChip 3000). The format is biochemical.
Text: as §1

Where [1] appears, read: 70 μM ATP (ATP Km), n/d = none detected.

Where two headings read alike, the source gives them in different places.

TrkA, sequence (P04629 33-796): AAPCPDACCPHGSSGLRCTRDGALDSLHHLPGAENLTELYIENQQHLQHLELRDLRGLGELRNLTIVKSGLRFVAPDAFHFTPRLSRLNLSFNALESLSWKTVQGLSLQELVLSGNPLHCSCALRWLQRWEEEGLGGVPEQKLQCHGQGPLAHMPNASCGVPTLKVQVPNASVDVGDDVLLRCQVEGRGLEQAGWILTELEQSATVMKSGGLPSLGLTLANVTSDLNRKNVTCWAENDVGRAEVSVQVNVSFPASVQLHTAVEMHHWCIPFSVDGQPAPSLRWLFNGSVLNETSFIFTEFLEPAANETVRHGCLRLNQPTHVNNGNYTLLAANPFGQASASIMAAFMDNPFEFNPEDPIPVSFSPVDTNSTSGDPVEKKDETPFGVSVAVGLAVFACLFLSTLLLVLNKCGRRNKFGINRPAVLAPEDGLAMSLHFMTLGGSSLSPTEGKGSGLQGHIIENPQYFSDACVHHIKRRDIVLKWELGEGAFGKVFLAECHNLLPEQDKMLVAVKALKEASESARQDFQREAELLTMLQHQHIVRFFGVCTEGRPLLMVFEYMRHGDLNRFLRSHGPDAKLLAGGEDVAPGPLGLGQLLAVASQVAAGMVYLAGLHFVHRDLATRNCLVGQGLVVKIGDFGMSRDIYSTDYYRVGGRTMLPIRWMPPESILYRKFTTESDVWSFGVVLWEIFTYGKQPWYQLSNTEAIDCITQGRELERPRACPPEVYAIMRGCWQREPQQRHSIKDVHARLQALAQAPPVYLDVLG
TrkB, sequence (Q16620 32-822): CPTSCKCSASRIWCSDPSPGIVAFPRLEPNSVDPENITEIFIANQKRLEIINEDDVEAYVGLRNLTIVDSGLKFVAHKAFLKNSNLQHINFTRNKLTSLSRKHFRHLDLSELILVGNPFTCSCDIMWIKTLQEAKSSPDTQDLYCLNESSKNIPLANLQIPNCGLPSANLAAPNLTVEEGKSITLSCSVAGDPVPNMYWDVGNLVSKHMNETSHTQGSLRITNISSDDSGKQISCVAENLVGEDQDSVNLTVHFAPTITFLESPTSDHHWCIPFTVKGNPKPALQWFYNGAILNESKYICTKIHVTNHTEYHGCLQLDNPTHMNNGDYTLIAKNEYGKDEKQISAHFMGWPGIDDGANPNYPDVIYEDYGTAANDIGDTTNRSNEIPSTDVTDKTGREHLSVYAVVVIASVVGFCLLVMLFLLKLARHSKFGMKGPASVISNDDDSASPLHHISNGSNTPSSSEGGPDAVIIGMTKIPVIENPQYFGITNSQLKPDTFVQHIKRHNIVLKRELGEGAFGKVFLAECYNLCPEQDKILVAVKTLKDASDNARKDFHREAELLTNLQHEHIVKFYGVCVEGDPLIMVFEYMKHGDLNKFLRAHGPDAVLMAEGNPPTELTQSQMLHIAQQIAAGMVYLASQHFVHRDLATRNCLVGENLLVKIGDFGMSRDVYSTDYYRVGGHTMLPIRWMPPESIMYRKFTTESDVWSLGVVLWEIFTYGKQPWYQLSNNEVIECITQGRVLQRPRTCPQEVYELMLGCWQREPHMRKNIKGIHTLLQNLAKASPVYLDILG

Turning to `COc1cc([C@H](C)n2c(N)nc3cc(-c4cnn(C)c4)cnc32)ccc1OCc1ccc(C(F)(F)F)cc1` (single isomer, unassigned) [Ex. 3-49-6a, 3-(1-(3-methoxy-4-((4-(trifluoromethyl)benzyl)oxy)phenyl)ethyl)-6-(1-methyl-1H-pyrazol-4-yl)-3H-imidazo[4,5-b]pyridin-2-amine], at TrkA, the IC50 turned out to be 0.0003 µM.

As to `COc1cc([C@@H](C)n2c(N)nc3cc(-c4cnn(C)c4)cnc32)ccc1OCc1ccc(C(F)(F)F)cc1` (single isomer, unassigned) [Ex. 3-49-6b, 3-(1-(3-methoxy-4-((4-(trifluoromethyl)benzyl)oxy)phenyl)ethyl)-6-(1-methyl-1H-pyrazol-4-yl)-3H-imidazo[4,5-b]pyridin-2-amine], the IC50 on TrkA was 0.005 µM.

`CCC(Oc1ccc(Cn2c(N)nc3cc(-c4cnn(C)c4)cnc32)cc1OC)c1ccc(OC)nc1` (stereo not drawn) [3-34, 3-(3-methoxy-4-(1-(6-methoxypyridin-3-yl)propoxy)benzyl)-6-(1-methyl-1H-pyrazol-4-yl)-3H-imidazo[4,5-b]pyridin-2-amine]: the results for the IC50 on TrkA and on TrkB (setting [1]) were 0.032 µM and 0.026 µM, respectively.

For `COc1ccc(COc2ccc(Cn3c(N)nc4cc(-c5cnn(C)c5)ccc43)cc2OC)cc1` [Ex. 3-1, 1-(3-Methoxy-4-((4-methoxybenzyl)oxy)benzyl)-5-(1-methyl-1H-pyrazol-4-yl)-1H-benzo[d]imidazol-2-amine], the values for the IC50 on TrkA and on TrkB (setting [1]) were 0.001 µM and 0.0005 µM, respectively.

With `COc1ccc(COc2ccc(Cn3c(N)nc4cc(-c5cncnc5)ccc43)cc2OC)cc1` [Ex. 3-2-1, 1-(3-Methoxy-4-((4-methoxybenzyl)oxy)benzyl)-5-(pyrimidin-5-yl)-1H-benzo[d]imidazol-2-amine], the figures for the IC50 on TrkA and at TrkB (setting [1]) were 0.086 µM and 0.023 µM, respectively.

Turning to `COc1ccc(COc2ccc(Cn3c(N)nc4cc(-c5ccncc5)ccc43)cc2OC)cc1` [Ex. 3-2-2, 1-(3-Methoxy-4-((4-methoxybenzyl)oxy)benzyl)-5-(pyridine-4-yl)-1H-benzo[d]imidazol-2-amine], the IC50 on TrkA is 0.008 µM; on TrkB (setting [1]) it was 0.004 µM.

Turning to `COc1ccc(COc2ccc(Cn3c(N)nc4cc(-c5cnn(CCN6CCOCC6)c5)ccc43)cc2OC)cc1` [Ex. 3-2-3, 1-(3-Methoxy-4-((4-methoxybenzyl)oxy)benzyl)-5-(1-(2-morpholinoethyl)-1H-pyrazol-4-yl)-1H-benzo[d]imidazol-2-amine], the values for the IC50 at TrkA and on TrkB (setting [1]) were 0.003 µM and 0.001 µM, respectively.

Turning to `COc1ccc(COc2ccc(Cn3c(N)nc4cc(-c5ccc(P(C)(C)=O)nc5)ccc43)cc2OC)cc1` [Ex. 3-3, (5-(2-Amino-1-(3-methoxy-4-((4-methoxybenzyl)oxy)benzyl)-1H-benzo[d]imidazol-5-yl)pyridin-2-yl)dimethylphosphine oxide], the values for the IC50 on TrkA and at TrkB (setting [1]) were 0.007 µM and 0.006 µM, respectively.

`COc1ccc(COc2ccc(Cn3cnc4cc(-n5cc(C6CCCNC6)nn5)ccc43)cc2OC)cn1` (stereo not drawn) [Ex. 3-6, 1-(3-Methoxy-4-((6-methoxypyridin-3-yl)methoxy)benzyl)-5-(4-(piperidin-3-yl)-1H-1,2,3-triazol-1-yl)-1H-benzo[d]imidazole]: the IC50 was determined as 0.175 µM on TrkA and 0.086 µM on TrkB (setting [1]).

For `COc1ccc(COc2ccc(Cn3cnc4cc(C5CCNCC5)ccc43)cc2OC)cn1` [Ex. 3-8, 1-(3-Methoxy-4-((6-methoxypyridin-3-yl)methoxy)benzyl)-5-(piperidin-4-yl)-1H-benzo[d]imidazole], the results for the IC50 on TrkA and on TrkB (setting [1]) were 11.1 µM and 3.46 µM, respectively.

As to `COc1ccc(COc2ccc(Cn3cnc4cc(N5CCOCC5)ccc43)cc2OC)cn1` [Ex. 3-9, 4-(1-(3-Methoxy-4-((6-methoxypyridin-3-yl)methoxy)benzyl)-1H-benzo[d]imidazol-5-yl)morpholine], the results for the IC50 on TrkA and on TrkB were 0.793 µM and 0.257 µM, respectively.

Turning to `COc1ccc(COc2ccc(Cn3cnc4cc(N5CCC(C(C)(C)N)CC5)ccc43)cc2OC)cn1` [Ex. 3-10, 2-(1-(1-(3-Methoxy-4-((6-methoxypyridin-3-yl)methoxy)benzyl)-1H-benzo[d]imidazol-5-yl)piperidin-4-yl)propan-2-amine], the IC50 was 0.652 µM on TrkA and 0.574 µM on TrkB (setting [1]).

Turning to `COc1ccc(COc2ccc(Cn3cnc4cc(N5CC6(CCNCC6)C5)ccc43)cc2OC)cn1` [Ex. 3-11, 1-(3-methoxy-4-((6-methoxypyridin-3-yl)methoxy)benzyl)-5-(2,7-diazaspiro[3.5]nonan-2-yl)-1H-benzo[d]imidazole], the figures for the IC50 at TrkA and on TrkB (setting [1]) were 0.135 µM and 0.12 µM, respectively.

With `COc1ccc(COc2ccc(Cn3cnc4cc(N5CCC(N)CC5)ccc43)cc2OC)cn1` [Ex. 3-12, 1-(1-(3-Methoxy-4-((6-methoxypyridin-3-yl)methoxy)benzyl)-1H-benzo[d]imidazol-5-yl)piperidin-4-amine], the IC50 on TrkA was determined as 1.03 µM; at TrkB (setting [1]), 0.637 µM.

For the compound `COc1ccc(COc2ccc(Cn3cnc4cc(N5CCN(C)CC5)ccc43)cc2OC)cn1` [Ex. 3-13, 1-(3-Methoxy-4-((6-methoxypyridin-3-yl)methoxy)benzyl)-5-(4-methylpiperazin-1-yl)-1H-benzo[d]imidazole], the IC50 on TrkA amounted to 1.13 µM; on TrkB (setting [1]), 0.443 µM.

`COc1ccc(COc2ccc(Cn3c(N)nc4cc(N5CCN(C)CC5=O)ccc43)cc2OC)cn1` [Ex. 3-14, 1-(2-Amino-1-(3-methoxy-4-((6-methoxypyridin-3-yl)methoxy)benzyl)-1H-benzo[d]imidazol-5-yl)-4-methylpiperazin-2-one]: the IC50 at TrkA is 8.98 µM; on TrkB (setting [1]), 4.37 µM.

With `COc1ccc(COc2ccc(Cn3c(N)nc4cc(-c5ccc(P(C)(C)=O)nc5)cnc43)cc2OC)cc1` [Ex. 3-16, (5-(2-Amino-3-(3-methoxy-4-((4-methoxybenzyl)oxy)benzyl)-3H-imidazo[4,5-b]pyridin-6-yl)pyridin-2-yl)dimethylphosphine oxide], the IC50 on TrkA was found to be 0.0005 µM; on TrkB (setting [1]) it was 0.0002 µM.

Consider `COc1ccc(COc2ccc(Cn3cnc4cc(N5CCC(C(C)(C)N)CC5)cnc43)cc2OC)cn1` [Ex. 3-18-1, 2-(1-(3-(3-Methoxy-4-((6-methoxypyridin-3-yl)methoxy)benzyl)-3H-imidazo[4,5-b]pyridin-6-yl)piperidin-4-yl)propan-2-amine], for which the IC50 on TrkA is 0.054 µM; at TrkB (setting [1]), 0.057 µM.

On to `COc1ccc(COc2ccc(Cn3cnc4cc(N5CCOCC5)cnc43)cc2OC)cn1` [Ex. 3-18-2, 4-(3-(3-Methoxy-4-((6-methoxypyridin-3-yl)methoxy)benzyl)-3H-imidazo[4,5-b]pyridin-6-yl)morpholine], for which the IC50 at TrkA was found to be 0.09 µM; at TrkB (setting [1]), 0.031 µM.

Turning to `COc1ccc(COc2ccc(Cn3cnc4cc(N5CCN(C6CC6)CC5)cnc43)cc2OC)cn1` [Ex. 3-18-3, 6-(4-Cyclopropylpiperazin-1-yl)-3-(3-methoxy-4-((6-methoxypyridin-3-yl)methoxy)benzyl)-3H-imidazo[4,5-b]pyridine], the IC50 at TrkA was determined as 0.113 µM; on TrkB (setting [1]), 0.052 µM.

On to `COc1ccc(COc2ccc(Cn3cnc4cc(N5CCN6CCC5CC6)cnc43)cc2OC)cn1` [Ex. 3-18-4, 4-(3-(3-Methoxy-4-((6-methoxypyridin-3-yl)methoxy)benzyl)-3H-imidazo[4,5-b]pyridin-6-yl)-1,4-diazabicyclo[3.2.2]nonane], for which the IC50 on TrkA amounted to 0.47 µM; at TrkB (setting [1]) it was 0.349 µM.

On to `COc1ccc(COc2ccc(Cn3cnc4cc(N5CC6(CCNCC6)C5)cnc43)cc2OC)cn1` [Ex. 3-18-5, 3-(3-Methoxy-4-((6-methoxypyridin-3-yl)methoxy)benzyl)-6-(2,7-diazaspiro[3.5]nonan-2-yl)-3H-imidazo[4,5-b]pyridine], for which the IC50 at TrkA came out at 0.025 µM; at TrkB (setting [1]), 0.021 µM.

Turning to `COc1ccc(COc2ccc(Cn3cnc4cc(N5CCC(N)CC5)cnc43)cc2OC)cn1` [Ex. 3-18-6, 1-(3-(3-Methoxy-4-((6-methoxypyridin-3-yl)methoxy)benzyl)-3H-imidazo[4,5-b]pyridin-6-yl)piperidin-4-amine], the IC50 at TrkA amounted to 0.232 µM; at TrkB (setting [1]), 0.133 µM.

Take `COc1ccc(COc2ccc(Cn3cnc4cc(N5CCC[C@H]5C(=O)O)cnc43)cc2OC)cn1` [Ex. 3-18-7, (S)-1-(3-(3-Methoxy-4-((6-methoxypyridin-3-yl)methoxy)benzyl)-3H-imidazo[4,5-b]pyridin-6-yl)pyrrolidine-2-carboxylic acid]: the values for the IC50 on TrkA and on TrkB (setting [1]) were 0.008 µM and 0.013 µM, respectively.

For the compound `COc1ccc(COc2ccc(Cn3cnc4cc(-c5cnn(C6CCNCC6)c5)cnc43)cc2OC)cn1` [Ex. 3-19, 3-(3-Methoxy-4-((6-methoxypyridin-3-yl)methoxy)benzyl)-6-(1-(piperidin-4-yl)-1H-pyrazol-4-yl)-3H-imidazo[4,5-b]pyridine], the figures for the IC50 on TrkA and on TrkB (setting [1]) were 0.001 µM and 0.0009 µM, respectively.

On to `COc1cc(Cn2cnc3cc(-c4cnn(C5CCNCC5)c4)cnc32)ccc1OCc1ccc(C)nc1` [Ex. 3-20, 3-(3-Methoxy-4-((6-methylpyridin-3-yl)methoxy)benzyl)-6-(1-(piperidin-4-yl)-1H-pyrazol-4-yl)-3H-imidazo[4,5-b]pyridine], for which the IC50 on TrkA came out at 0.0009 µM; on TrkB (setting [1]) it was 0.0006 µM.

`COc1ccc(COc2ccc(Cn3cnc4cc(-c5noc(C6CCNCC6)n5)cnc43)cc2OC)cn1` [Ex. 3-21, 3-(3-(3-Methoxy-4-((6-methoxypyridin-3-yl)methoxy)benzyl)-3H-imidazo[4,5-b]pyridin-6-yl)-5-(piperidin-4-yl)-1,2,4-oxadiazole]: the IC50 at TrkA amounted to 0.026 µM; on TrkB (setting [1]), 0.024 µM.

Regarding `COc1ccc(COc2ccc(Cn3cnc4cc(-c5noc(C6CCNCC6)n5)ccc43)cc2OC)cn1` [Ex. 3-22, 3-(1-(3-Methoxy-4-((6-methoxypyridin-3-yl)methoxy)benzyl)-1H-benzo[d]imidazol-5-yl)-5-(piperidin-4-yl)-1,2,4-oxadiazole], the IC50 is 0.306 µM at TrkA and 0.317 µM at TrkB (setting [1]).

The values are drawn from patent publication US9067914B1, “Tropomyosin-related kinase (TRK) inhibitors” (Genzyme Corporation, priority 2013, dated 2015).
